# Source: US20250129028A1, “COMPOUNDS AND METHODS FOR YAP/TEAD MODULATION AND INDICATIONS THEREFOR” (Opna Bio SA, priority 2022, published 2025)
# System: TEAD-dependent transcription
# Assay: TEAD-dependent transcription cell-based reporter assay (MSTO-211H+12XGTIIC luciferase)
# Parameters: species or system human
# Settings: Homo sapiens; MSTO-211H+12XGTIIC cell line, luciferase signal normalized to cell viability, 24 hours compound incubation; read-out: MSTO-211H GMean IC50 (uM) Cell Assay Reporter Cell Variant: TEAD
# From the text: Determine Inhibitor Activity Against TEAD-Dependent Transcription in a Cell-Based Reporter Assay
# The human mesothelioma cell line MSTO-211H was stably transfected with a pGL4.21 plasmid containing a synthetic promoter with 12 copies of the GTIIC TEAD response element that drives the expression of a luciferase reporter gene^1 using Lipofectamine transfection reagent (Thermo Fisher). Transfected cells were selected using puromycin and single cell clones expressing this construct (referred to as MSTO-211H+12XGTIIC) were generated by limiting dilution. MSTO-211H cells was characterized by genetic alterations in key components of the Hippo pathway^2, resulting in up-regulation of YAP/TEAD-mediated transcription. […] To evaluate TEAD inhibitors, the MSTO-211H+12XGTIIC cell line was seeded in a 96-well plate in 50 μL of culture media at 1×10^4 cells per well and incubated at 37° C. overnight. Serial dilutions of compounds (in total volume of 50 μL of culture media) were added to the cells and incubated at 37° C. for 24 hours. Each plate included cells treated with DMSO as high controls and cells treated with 20 μM of the reference compound K-975 (a known TEAD inhibitor)^3 as low controls. Cell viability was assayed by the addition of 25 μL of CellTiter-Fluor reagent (Promega) followed by a 30-minute incubation at 37° C. and quantification of the fluorescence signal (Ex400/Em505). Subsequently, luciferase expression was assayed by the addition of 25 μL of ONE-Glo reagent (Promega) followed by a 10-minute incubation at room temperature and quantification of the luminescence signal. The luminescence signal was normalized to the fluorescence signal to correct for any loss in cell viability over the 24-hour compound incubation period. The percentage of inhibition of normalized luminescence signal, indicative of compound-mediated inhibition of TEAD-dependent transcription, at individual compound concentrations relative to high and low controls was calculated. The data were analyzed by using nonlinear regression to generate IC50 values for individual compounds.
row,Structure (SMILES),IC50 [µM]
1,"NC(=O)N1CCc2ccc(Oc3ccc(C(F)(F)F)cc3)cc2C1 [P-0010, 7-(4-(trifluoromethyl)-phenoxy)-3,4-dihydroiso-quinoline-2(1H)-carbox-amide]",0.001 to 10
2,"CS(=O)(=O)C12CC(C(=O)N3CCc4ccc(Oc5ccc(C(F)(F)F)cc5)cc4C3)(C1)C2 [P-0089, (3-(methylsulfonyl)-bicyclo[1.1.1]pentan-1-yl)(7-(4-(trifluoro-methyl)phenoxy)-3,4-dihydroisoquinolin-2(1H)-yl)methanone]",0.001 to 10
3,"CCS(=O)(=O)NC(=O)N1CCc2c(cccc2Oc2ccc(C(F)(F)F)cc2)C1 [P-0238, N-(ethylsulfonyl)-5-(4-(trifluoromethyl)phen-oxy)-3,4-dihydroisoquin-oline-2(1H)-carboxamide]",0.001 to 10
4,"NS(=O)(=O)c1ccnc(N2CCc3ccc(Oc4ccc(C(F)(F)F)cc4)cc3C2)c1 [P-0230, 2-(7-(4-(trifluorometh-yl)phenoxy)-3,4-dihydro-isoquinolin-2(1H)-yl)-pyridine-4-sulfonamide]",0.001 to 10
5,"NC1=NC(=O)C(CC(=O)N2CCc3ccc(Oc4ccc(C(F)(F)F)cc4)cc3C2)S1 (centres unmarked) [P-0070, 2-amino-5-(2-oxo-2-(7-(4-(trifluoromethyl)-phenoxy)-3,4-dihydroiso-quinolin-2(1H)-yl)ethyl)-thiazol-4(5H)-one]",0.001 to 10
6,"CC(C)(O)CC(=O)N1CCc2c(cccc2Oc2ccc(C(F)(F)F)cc2)C1 [P-0264, 3-hydroxy-3-methyl-1-(5-(4-(trifluoromethyl)-phenoxy)-3,4-dihydroiso-quinolin-2(1H)-yl)butan-1-one]",0.001 to 10
7,"CC(=O)N1CC(Cc2c(Oc3ccc(C(F)(F)F)cc3)ccc3c2CN(C(=O)CCS(C)(=O)=O)CC3)C1 [P-0216, 1-(8-((1-acetylazetidin-3-yl)methyl)-7-(4-(trifluoromethyl)phen-oxy)-3,4-dihydroisoquin-olin-2(1H)-yl)-3-(methyl-sulfonyl)propan-1-one]",0.001 to 10
8,"Cc1nnc(CCC(=O)N2CCc3ccc(Oc4ccc(C(F)(F)F)cc4)cc3C2)s1 [P-0046, 3-(5-methyl-1,3,4-thiadi-azol-2-yl)-1-(7-(4-(trifluoromethyl)phen-oxy)-3,4-dihydroisoquin-olin-2(1H)-yl)propan-1-one]",0.001 to 10
9,"CC(C)NS(=O)(=O)N1CCc2ccc(Oc3ccc(C(F)(F)F)cc3)cc2C1 [P-0020, N-isopropyl-7-(4-(trifluoromethyl)phen-oxy)-3,4-dihydroiso-quinoline-2(1H)-sulfon-amide]",0.001 to 10
10,"N#CC1CC(C(=O)N2CCc3ccc(Oc4ccc(C(F)(F)F)cc4)cc3C2)C1 (centres unmarked) [P-0042, 3-(7-(4-(trifluorometh-yl)phenoxy)-1,2,3,4-tetrahydroisoquinoline-2-carbonyl)cyclobutane-1-carbonitrile]",0.001 to 10
11,"CC(=O)N1CCC(C2c3cc(Oc4ccc(C(F)(F)F)cc4)ccc3CCN2C(=O)CCS(C)(=O)=O)C1 (centres unmarked) [P-0203, 1-(1-(1-acetylpyrrolidin-3-yl)-7-(4-(trifluorometh-yl)phenoxy)-3,4-dihydro-isoquinolin-2(1H)-yl)-3-(methylsulfonyl)-propan-1-one]",0.001 to 10
12,"CN(C)C(N1CCc2ccc(Oc3ccc(C(F)(F)F)cc3)cc2C1)=[N+](C)C [P-0156, N-((dimethylamino)(7-(4-(trifluoromethyl)phen-oxy)-3,4-dihydroisoquin-olin-2(1H)-yl)methylene)-N-methylmethanaminium]",0.001 to 10
13,"O=C(c1cnco1)N1CCc2ccc(Oc3ccc(C(F)(F)F)cc3)cc2C1 [P-0122, oxazol-5-yl(7-(4-(trifluoromethyl)phen-oxy)-3,4-dihydroisoquin-olin-2(1H)-yl)methanone]",0.001 to 10
14,"CCN(CC)C(=O)N1CCc2ccc(Oc3ccc(C(F)(F)F)cc3)cc2C1 [P-0035, N,N-diethyl-7-(4-(trifluoromethyl)phen-oxy)-3,4-dihydroisoquin-oline-2(1H)-carboxamide]",0.001 to 10
15,CN(CCC#N)C(=O)N1CCc2ccc(Oc3ccc(C(F)(F)F)cc3)cc2C1 [P-0066],0.001 to 10
16,C=CS(=O)(=O)N1CCC(C(=O)N2CCc3ccc(Oc4ccc(C(F)(F)F)c(F)c4)cc3C2)CC1 [P-0159],0.001 to 10

row,Structure (SMILES),IC50 [µM]
1,"CCCCNC(=O)N1CCc2ccc(Oc3ccc(C(F)(F)F)cc3)cc2C1 [P-0032, N-butyl-7-(4-(trifluoro-methyl)phenoxy)-3,4-dihydroisoquinoline-2(1H)-carboxamide]",0.001 to 10
2,"CC(=O)N1CC(CC2c3cc(Oc4ccc(C(F)(F)F)cc4)ccc3CCN2C(=O)CCS(C)(=O)=O)C1 (centres unmarked) [P-0200, 1-(1-((1-acetylazetidin-3-yl)methyl)-7-(4-(trifluoromethyl)phen-oxy)-3,4-dihydroisoquin-olin-2(1H)-yl)-3-(methyl-sulfonyl)propan-1-one]",0.001 to 10
3,"O=C(CCO)N1CCc2ccc(Oc3ccc(C(F)(F)F)cc3)cc2C1 [P-0067, 3-hydroxy-1-(7-(4-(trifluoromethyl)phen-oxy)-3,4-dihydroiso-quinolin-2(1H)-yl)-propan-1-one]",0.001 to 10
4,"C=CC(=O)NCC(=O)N1CCc2ccc(Oc3ccc(C(F)(F)F)c(F)c3)cc2C1 [P-0115, N-(2-(7-(3-fluoro-4-(trifluoromethyl)phen-oxy)-3,4-dihydroisoquin-olin-2(1H)-yl)-2-oxoeth-yl)acrylamide]",0.001 to 10
5,"Nc1ncc(CC(=O)N2CCc3ccc(Oc4ccc(C(F)(F)F)cc4)cc3C2)s1 [P-0093, 2-(2-aminothiazol-5-yl)-1-(7-(4-(trifluoromethyl)-phenoxy)-3,4-dihydroiso-quinolin-2(1H)-yl)ethan-1-one]",0.001 to 10
6,"O=C(CC1CCS(=O)(=O)C1)N1CCc2ccc(Oc3ccc(C(F)(F)F)cc3)cc2C1 (centres unmarked) [P-0059, 2-(1,1-dioxidotetrahydro-thiophen-3-yl)-1-(7-(4-(trifluoromethyl)phen-oxy)-3,4-dihydroisoquin-olin-2(1H)-yl)ethan-1-one]",0.001 to 10
7,"O=S(=O)(N1CCCC1)N1CCc2ccc(Oc3ccc(C(F)(F)F)cc3)cc2C1 [P-0030, 2-(pyrrolidin-1-ylsulfon-yl)-7-(4-(trifluorometh-yl)phenoxy)-1,2,3,4-tetrahydroisoquinoline]",0.001 to 10
8,"C=CS(=O)(=O)N1CCC(C(=O)N2CCc3ccc(Oc4ccc(C(F)(F)F)c(F)c4)cc3C2)C1 (centres unmarked) [P-0158, (7-(3-fluoro-4-(trifluoro-methyl)phenoxy)-3,4-dihydroisoquinolin-2(1H)-yl)(1-(vinylsul-fonyl)pyrrolidin-3-yl)-methanone]",0.001 to 10
9,"CS(=O)(=O)CCC(=O)N1CCc2ccc(Oc3ccc(C(F)(F)F)cc3)c(-n3cc(C(F)(F)F)cn3)c2C1 [P-0208, 3-(methylsulfonyl)-1-(8-(4-(trifluoromethyl)-1H-pyrazol-1-yl)-7-(4-(trifluoromethyl)phen-oxy)-3,4-dihydroisoquin-olin-2(1H)-yl)propan-1-one]",0.001 to 10
10,"Nc1cncc(C(=O)N2CCc3c(cccc3Oc3ccc(C(F)(F)F)cc3)C2)n1 [P-0244, (6-aminopyrazin-2-yl)(5-(4-(trifluoromethyl)phen-oxy)-3,4-dihydroisoquin-olin-2(1H)-yl)methanone]",0.001 to 10
11,"Nc1nc(C(=O)N2CCc3ccc(Oc4ccc(C(F)(F)F)cc4)cc3C2)cs1 [P-0073, (2-aminothiazol-4-yl)(7-(4-(trifluoromethyl)phen-oxy)-3,4-dihydroisoquin-olin-2(1H)-yl)methanone]",0.001 to 10
12,"C=CC(=O)N1CC(C(=O)N2CCc3ccc(Oc4ccc(C(F)(F)F)c(F)c4)cc3C2)C1 [P-0118, 1-(3-(7-(3-fluoro-4-(trifluoromethyl)phen-oxy)-1,2,3,4-tetrahydro-isoquinoline-2-carbon-yl)azetidin-1-yl)prop-2-en-1-one]",0.001 to 10
13,"Nc1nc(CC(=O)N2CCc3ccc(Oc4ccc(C(F)(F)F)c(F)c4)cc3C2)cs1 [P-0155, 2-(2-aminothiazol-4-yl)-1-(7-(3-fluoro-4-(trifluoromethyl)phen-oxy)-3,4-dihydroisoquin-olin-2(1H)-yl)ethan-1-one]",0.001 to 10
14,"O=C(c1cc(C(F)F)[nH]n1)N1CCc2ccc(Oc3ccc(C(F)(F)F)cc3)cc2C1 [P-0103, (5-(difluoromethyl)-1H-pyrazol-3-yl)(7-(4-(trifluoromethyl)phen-oxy)-3,4-dihydroisoquin-olin-2(1H)-yl)methanone]",0.001 to 10
15,"O=C(C1CCNC1)N1CCc2ccc(Oc3ccc(C(F)(F)F)c(F)c3)cc2C1 (centres unmarked) [P-0145, (7-(3-fluoro-4-(trifluoro-methyl)phenoxy)-3,4-dihydroisoquinolin-2(1H)-yl)(pyrrolidin-3-yl)methanone]",0.001 to 10
16,"O=C(CC1CCOC1)N1CCc2ccc(Oc3ccc(C(F)(F)F)cc3)cc2C1 (centres unmarked) [P-0086, 2-(tetrahydrofuran-3-yl)-1-(7-(4-(trifluorometh-yl)phenoxy)-3,4-dihydro-isoquinolin-2(1H)-yl)-ethan-1-one]",0.001 to 10
